One block for each compound: values may come before it. Calls of active or inactive are those of the source.
Assays:
[1] = target: Cytochrome P450 2C9 (Homo sapiens, UniProt P11712)
[2] = inhibitors of HIV Env-driven cell fusion, dose response, cherry-pick (AID 652057); type: functional, cell-based
[3] = CEM21 lymphoblast cell cytotoxicity, dose response, cytotoxicity control for viral fusion inhibitor project, CellTiter-Glo luminescence, cherry-picked (AID 652042); type: functional, cell-based;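 also: potency for signal decrease meaning cytotoxicity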
[4] = ZM109 Env clade C HIV-1 fusion inhibitors, dose response, HeLa effector, CEM target cells, luciferase, cherry-pick (AID 652058); type: functional, cell-based
[5] = inhibitors of clade B AD8 Env fusion, dose response, cell-based, cherry-pick (AID 652062); type: functional;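 also: luciferase signal from cell-cell fusion driven by HIV-1 clade B AD8 Env; potency is for inhibitors of fusion seen as a drop in luminescence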
[6] = cells; type: functional, cell-based
[7] = inhibitors of intracellular T. cruzi replication, confirmation, NIH3T3 host cells, beta-gal luminescence (AID 2044); type: functional, cell-based;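 also: intracellular parasites grown in NIH/3T3 mouse fibroblasts as host cells; luminescent beta-galactosidase reporter signal from transgenic T. cruzi replicating inside host cells; inhibitors lower the luminescence signal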
[8] = cells; type: functional, cell-based; remark: listed apart in the source
[9] = cytotoxicity toward NIH3T3 fibroblasts, dose response, counter-screen, cell-based, ATP luminescence, mouse fibroblasts (AID 2010); type: functional;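 also: cells exposed to compound for about 90 hours before reading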
[10] = system: INS1; assay: beta cell apoptosis inhibitors, cytokine rescue, dose response, luminescence, retest (AID 449756); type: functional, cell-based; conditions: Rattus norvegicus;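 also: cell death triggered by IL-1 beta plus TNF-alpha plus IFN-gamma mixture; protective hits raise ATP signal compared with cytokine alone wells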
[11] = target: T1, DNA repair protein RAD52 homolog (Homo sapiens, UniProt P43351); type: functional, biochemical
T1 sequence (P43351 whole entry): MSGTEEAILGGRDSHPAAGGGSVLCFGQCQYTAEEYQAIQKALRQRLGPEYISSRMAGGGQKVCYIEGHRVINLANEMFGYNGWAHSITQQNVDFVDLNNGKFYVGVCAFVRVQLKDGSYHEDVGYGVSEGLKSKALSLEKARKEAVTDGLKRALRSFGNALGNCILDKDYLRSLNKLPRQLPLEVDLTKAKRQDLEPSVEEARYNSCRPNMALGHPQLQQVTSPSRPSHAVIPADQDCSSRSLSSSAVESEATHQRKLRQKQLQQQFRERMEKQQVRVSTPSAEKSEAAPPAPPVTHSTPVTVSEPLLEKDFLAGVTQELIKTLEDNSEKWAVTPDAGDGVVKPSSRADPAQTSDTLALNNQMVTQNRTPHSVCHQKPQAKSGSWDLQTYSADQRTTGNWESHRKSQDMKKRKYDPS

[12] = human group III sPLA2 inhibitors, dose response, biochemical, QFRET, IC50 (AID 743457);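 also: green fluorescence rise as the enzyme cleaves BODIPY PC-A2 in liposomes; potency for inhibition of the enzyme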
[13] = off-target signal loss in HeLa-CEM21 co-culture – HeLa F-luc CTL cells, cherry-picked, counter-screen for HIV-1 Env fusion inhibitor project, dose response (AID 652040); type: functional, cell-based;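 also: potency for signal decrease marking cytotoxic or nonspecific inhibition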
[14] = target: T2, Protein skinhead-1 (Caenorhabditis elegans, UniProt P34707); type: functional
T2 sequence (P34707 whole entry): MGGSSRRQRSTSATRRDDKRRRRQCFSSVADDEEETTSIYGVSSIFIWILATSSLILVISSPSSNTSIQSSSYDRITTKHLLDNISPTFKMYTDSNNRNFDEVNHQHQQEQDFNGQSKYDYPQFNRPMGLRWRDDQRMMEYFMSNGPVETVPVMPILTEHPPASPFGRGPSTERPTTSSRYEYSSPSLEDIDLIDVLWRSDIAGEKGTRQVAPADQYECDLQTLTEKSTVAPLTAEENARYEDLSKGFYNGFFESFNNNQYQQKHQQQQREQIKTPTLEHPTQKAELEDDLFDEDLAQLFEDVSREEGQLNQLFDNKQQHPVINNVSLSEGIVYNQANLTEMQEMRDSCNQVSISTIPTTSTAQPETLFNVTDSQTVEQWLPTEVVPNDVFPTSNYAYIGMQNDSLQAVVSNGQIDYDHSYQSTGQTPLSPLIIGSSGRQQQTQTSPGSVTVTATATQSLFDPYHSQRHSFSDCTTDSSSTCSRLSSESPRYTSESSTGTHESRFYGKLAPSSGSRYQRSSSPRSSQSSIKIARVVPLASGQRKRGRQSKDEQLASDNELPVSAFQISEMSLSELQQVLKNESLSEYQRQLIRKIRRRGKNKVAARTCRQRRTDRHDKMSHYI

[15] = NIH-3T3 fibroblast cytotoxicity, dose response, cytotoxicity control, cell-based, fluorescence, Alamar Blue, secondary assay (AID 2327); type: functional;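 also: NIH-3T3 mouse fibroblasts cultured with fluconazole at 8 µg/mL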
[16] = target: T3, Ubiquitin-conjugating enzyme E2 N (Homo sapiens, UniProt P61088); type: functional;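 also: Dose-response confirmation in a TR-FRET assay detecting UBC13-driven polyubiquitin chain formation, inhibition measured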
T3 sequence (P61088 whole entry): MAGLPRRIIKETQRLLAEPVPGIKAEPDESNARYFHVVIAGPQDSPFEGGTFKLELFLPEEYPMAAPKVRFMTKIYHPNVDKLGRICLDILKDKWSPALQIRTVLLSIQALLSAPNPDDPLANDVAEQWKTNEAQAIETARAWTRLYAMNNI

Sequence of Cytochrome P450 2C9 (P11712 whole entry, the tested form may be a part): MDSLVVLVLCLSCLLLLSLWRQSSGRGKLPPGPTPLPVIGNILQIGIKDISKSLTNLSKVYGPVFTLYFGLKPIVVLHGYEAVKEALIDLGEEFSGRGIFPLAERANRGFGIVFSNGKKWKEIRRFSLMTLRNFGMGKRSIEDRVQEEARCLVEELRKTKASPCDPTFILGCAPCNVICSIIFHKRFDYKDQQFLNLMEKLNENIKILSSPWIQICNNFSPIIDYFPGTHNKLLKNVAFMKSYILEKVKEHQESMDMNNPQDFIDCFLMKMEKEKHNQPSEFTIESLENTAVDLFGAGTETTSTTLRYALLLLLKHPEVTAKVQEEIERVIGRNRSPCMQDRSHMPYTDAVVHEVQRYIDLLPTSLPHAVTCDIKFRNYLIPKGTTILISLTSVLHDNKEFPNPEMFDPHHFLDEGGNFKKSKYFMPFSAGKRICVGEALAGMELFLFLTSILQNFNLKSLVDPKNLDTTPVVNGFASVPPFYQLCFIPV

AC50 [1]: inconclusive
SMILES: O=C(Nc1ccccc1)c1cc(-c2ccccc2Cl)no1

SMILES: C[C@H]1CN([C@@H](C)CO)C(=O)Cc2cc(NC(=O)Nc3cccc4ccccc34)ccc2O[C@H]1CN(C)S(=O)(=O)c1ccccc1
AC50 [2]: < 0.26 µM (active)
AC50 [3]: 33.8 µM (active)
AC50 [4]: < 0.26 µM (active)
AC50 [5]: 1.07 µM (active)

SMILES: COc1ccc(/C(C)=N/NC(=O)c2cccc(S(=O)(=O)N3CCCC3)c2)c(O)c1
EC50 [6]: 11.6 µM (active)
EC50 [7]: 1.05 µM (active)
EC50 [8]: > 350 µM (not active)
EC50 [9]: 3.07 µM (active)
AC50 [10]: 0.631 µM (active)
AC50 [3]: 3.55 µM (active)
AC50 [5]: 17.4 µM (active)

AC50 [11]: 19.2 µM (active)
SMILES: Cc1ccc(F)cc1-c1cc2nc(NCCCN(C)C)n(C)c(=O)c2s1

IC50 [12]: > 122 µM (inactive)
SMILES: COc1ccccc1N=C(S)NNC(=O)c1nn(C)c(C)c1Cl

SMILES: CCN(CC)S(=O)(=O)c1cccc(NC(=O)c2ccc(-n3nc(C)cc3C)cc2)c1
AC50 [3]: 49.7 µM (active)
AC50 [13]: 10.7 µM (active)
AC50 [5]: 15.8 µM (active)

IC50 [14]: 43.4 µM (active)
SMILES: CCn1nccc1C(=O)Nc1ccc(Cl)c(Cl)c1

IC50 [12]: > 122 µM (inactive)
SMILES: COc1ccc(CCC(=O)NN=C(S)Nc2cccc(C(C)=O)c2)cc1

IC50 [14]: > 100 µM (inactive)
SMILES: O=C(CCS(=O)(=O)c1cccc2nsnc12)N1CCN(c2ccccc2F)CC1

SMILES: CCOC(=O)c1c(-c2ccccc2)oc2ccc(OCC(O)CN(C)C)cc12 (stereo unspecified)
EC50 [15]: 10 µM (inconclusive)
EC50 [6]: > 350 µM (not active)
EC50 [8]: 21.7 µM (active)
IC50 [16]: > 20 µM (inactive)
AC50 [11]: 15.5 µM (active)

IC50 [14]: > 100 µM (inactive)
SMILES: Cc1ccc(C(=O)NC(=S)Nc2ccccc2C(F)(F)F)c(C)c1
